# According to the supplement of paper PMC3493320:
# Tested on: NCI-H295R
# Assay: IC50 (antiproliferative, ATP content)
# Conditions: 48 h
# In short: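 Adrenocortical carcinoma cells (1500 per well) were seeded in serum-free ITS-supplemented DMEM in 1536-well plates and cultured overnight. Library compounds were then pin-transferred at 8 final concentrations from 0.6 nM to 46 µM, and plates were kept 48 h at 37 °C, 5% CO2. ATP was read as CellTiter-Glo luminescence after 20 min at room temperature and normalised to vehicle (0%) and positive control (100% inhibition). IC50 came from four-parameter logistic fits; compounds with no concentration response were recorded as above the top dose.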
row,Structure (SMILES),IC50 [µM]
1,CC(C(O)c1ccc(O)cc1)N1CCC(Cc2ccccc2)CC1 (stereo not drawn),> 46
2,COc1cc(C(=O)N2CCCCCCC2)cc(OC)c1OC,> 46
3,O=C(c1ccccc1)c1ccc2n1CCC2C(=O)O (stereo not drawn),> 46
4,O=C/C=C/c1ccccc1,> 46
5,O=C1c2ccccc2C(=O)C1c1ccc(Cl)cc1,> 46
6,CO[C@H]1C[C@H](O[C@H]2[C@H](C)[C@@H](O[C@@H]3O[C@H](C)C[C@H](N(C)C)[C@H]3O)[C@@H](C)C[C@]3(CO3)C(=O)[C@H](C)[C@@H](O)[C@@H](C)[C@@H](C)OC(=O)[C@@H]2C)O[C@@H](C)[C@@H]1O.O=P(O)(O)O,> 46
7,Nc1ccc(N)cc1,> 46
8,CC(C)[N+](C)(CCC(C(N)=O)(c1ccccc1)c1ccccc1)C(C)C,> 46
9,O=S([C@](CN1C=CN=N1)(C)[C@H]([C@]([O-])=O)N2C3=O)([C@@]([H])2C3)=O.[Na+],> 46
10,C=1(C(\C(C(=O)OC)=C(/NC=1C)C)c3c2c(non2)ccc3)C(OC(C)C)=O (stereo not drawn),> 46
11,CCON=O,> 46
12,COc1ccc2c(c1OC)C(=O)O[C@H]2[C@@H]1c2cc3c(cc2CCN1C)OCO3,> 46
13,COCC(C)N(C(=O)CCl)c1c(C)csc1C (stereo not drawn),> 46
14,N=C(N)NCC1COC2(CCCCC2)O1.N=C(N)NCC1COC2(CCCCC2)O1.O=S(=O)(O)O (stereo not drawn),> 46
15,Cc1nnc2n1-c1ccc(Cl)cc1C(c1ccccc1)=NC2,> 46
16,O=C1O[C@@H]3CCN2C\C=C(\COC(=O)[C@](C)(O)[C@](C)(O)[C@H]1C)[C@@H]23,> 46
17,[S]=[Sb](=[S])[S][Sb](=[S])=[S],> 46
18,C=CCN1CC[C@]23CCCC[C@H]2[C@H]1Cc1ccc(O)cc13,> 46
19,CN1CCC(O)(c2ccc(F)cc2)C(C(=O)c2ccc(F)cc2)C1 (stereo not drawn),> 46
20,Nc1ccc(S(=O)(=O)c2ccc(N)cc2)cc1,> 46
21,N[C@@H](CSSC[C@H](N)C(=O)O)C(=O)O,> 46

row,Structure (SMILES),IC50 [µM]
1,O=C1NCN(c2ccccc2)C12CCN(CCCOc1ccc(F)cc1)CC2,> 46
2,CC(=O)OCC(=O)[C@@]53/N=C(/C)O[C@@H]5C[C@H]2[C@@H]4CC\C1=C\C(=O)\C=C/[C@]1(C)[C@H]4[C@@H](O)C[C@@]23C,> 46
3,Cc1ccccc1-n1c(C)nc2ccccc2c1=O,> 46
4,CC(CNC1CCCCC1)OC(=O)c1ccccc1.Cl (stereo not drawn),> 46
5,OC[C@H]1O[C@@H](O[C@@H]2[C@@H](CO)O[C@](O)(CO)[C@H]2O)[C@H](O)[C@@H](O)[C@H]1O,> 46
6,Cl.Cl.O=C(O)COCCN1CCN(C(c2ccccc2)c2ccc(Cl)cc2)CC1 (stereo not drawn),> 46
7,CCN1CCC[C@H]1CNC(=O)c1c(O)c(Cl)cc(Cl)c1OC,> 46
8,CCN(CC)CCN1C(=O)CN=C(c2ccccc2F)c2cc(Cl)ccc21,> 46
9,Cl.O=C(O)c1cn(-c2ccc(F)cc2)c2cc(N3CCNCC3)c(F)cc2c1=O,> 46
10,CCCOC(=O)c1ccc(N)cc1,> 46
11,O=C(NNCS(=O)(=O)[O-])c1ccncc1.[Na+],> 46
12,N#Cc1nn(-c2c(Cl)cc(C(F)(F)F)cc2Cl)c(N)c1S(=O)C(F)(F)F (stereo not drawn),> 46
13,CNC1=Nc2ccc(Cl)cc2C(c2ccccc2)=[N+]([O-])C1,> 46
14,NC/C=C/C(=O)O,> 46
15,CCCCCCCCCCCCCCCCCC(=O)OCC(O)CO (stereo not drawn),> 46
16,CC[NH+](CC)CCc1nc(-c2ccccc2)no1.O=C([O-])CC(O)(CC(=O)O)C(=O)O,> 46
17,OC(O)C(Cl)(Cl)Cl,> 46
18,O=[C@@](OCC2=CC=CC(OC3=CC=CC=C3)=C2)[C@H]1C(C)(C)C1/C=C(C)/C (stereo partly drawn),> 46
19,O=C1CN=C(c2ccccc2)c2cc(Cl)ccc2N1CC1CC1,> 46
20,COc1nc(C)nc(Cl)c1NC1=NCCN1,> 46
21,CCN(CCO)CCCC(C)Nc1ccnc2cc(Cl)ccc12.O=S(=O)(O)O (stereo not drawn),> 46

# Other lines, results leading:
row,IC50 [µM],Structure (SMILES)
1,> 46,C/C(=C(\CCOC(=O)C(C)C)SS/C(CCOC(=O)C(C)C)=C(/C)N(C=O)Cc1cnc(C)nc1N)N(C=O)Cc1cnc(C)nc1N
2,> 46,O=C3N1/C(=C(\CS[C@@H]1[C@@H]3NC(=O)Cn2cnnn2)CSc4nnc(C)s4)C(O)=O
3,> 46,N#Cc1ccc(C(c2ccc(C#N)cc2)n2cncn2)cc1
4,> 46,CC(=O)Nc1ccc(OCCOCCOc2ccc(NC(C)=O)cc2)cc1
5,> 46,C[C@H](CCCC(C)(C)O)[C@H]1CC[C@H]2[C@@H]3CC=C4C[C@@H](O)CC[C@]4(C)[C@H]3CC[C@]12C
6,> 46,C[Se]CCC(N)C(=O)O (stereo not drawn)
7,> 46,CC(C)(CO)[C@@H](O)C(=O)NCCCC(=O)[O-].CC(C)(CO)[C@@H](O)C(=O)NCCCC(=O)[O-].[Ca+2]
8,> 46,C=C[C@]1(C)C[C@@H](OC(=O)CSCCN(CC)CC)[C@]2(C)[C@@H]3C(=O)CC[C@@]3(CC[C@@H]2C)[C@@H](C)[C@@H]1O
9,> 46,CCN1CCN(C(=O)N[C@@H](C(=O)N[C@@H]2C(=O)N3C(C(=O)[O-])=C(CSc4nnnn4C)CS[C@H]23)c2ccc(O)cc2)C(=O)C1=O.[Na+]
10,> 46,CCOC(N)=O
11,> 46,CCCN(CCc1cccs1)[C@H]1CCc2c(O)cccc2C1
12,> 46,O=[C@]([C@H]2N(CCC)CCCC2)NC1=C(C)C=CC=C1C.Cl
13,> 46,O=S(C1=CC=CC2=C1NC[C@H](C)C2)(N[C@@H](CCCNC(N)=N)C(N3[C@@H]([C@](O)=O)C[C@H](C)CC3)=O)=O
14,> 46,CN[C@H](CC(C)C)C(=O)N[C@H]1C(=O)N[C@@H](CC(N)=O)C(=O)N[C@H]2C(=O)N[C@H]3C(=O)N[C@H](C(=O)N[C@@H](C(=O)O)c4cc(O)cc(O)c4-c4cc3ccc4O)[C@H](O)c3ccc(c(Cl)c3)Oc3cc2cc(c3O[C@@H]2O[C@H](CO)[C@@H](O)[C@H](O)[C@H]2O[C@H]2C[C@](C)(N)C(O)[C@H](C)O2)Oc2ccc(cc2Cl)[C@H]1O.Cl (stereo partly drawn)
15,> 46,C[C@H]1C(=O)NC2=Nc3cccc(Cl)c3CN21
16,> 46,CC(=O)OC(C)C[N+](C)(C)C.[Cl-] (stereo not drawn)
17,> 46,CC(=O)N(CC(O)CO)c1c(I)c(C(=O)NCC(O)CO)c(I)c(C(=O)NCC(O)CO)c1I (stereo not drawn)
18,> 46,CC(C)(C)NCC(O)COc1cccc2c1CCC(=O)N2.Cl (stereo not drawn)
19,> 46,C[C@@H]1CCC[C@H](C)N1.Cl
20,> 46,CCOC(=O)C(CS)NCCNC(CS)C(=O)OCC.Cl.Cl (stereo not drawn)
21,> 46,C[C@H](CCC(=O)O)[C@H]1CC[C@H]2[C@@H]3[C@H](O)C[C@@H]4C[C@H](O)CC[C@]4(C)[C@H]3CC[C@]12C
22,> 46,CC(C)[C@H](N)C(=O)OCCOCn1cnc2c(=O)[nH]c(N)nc21.Cl
23,> 46,CCCCCCCCCCCC(=O)OC[C@@H](O)[C@H]1OC[C@H](O)[C@H]1O
24,> 46,CO[C@H]1/C=C/O[C@@]2(C)Oc3c(C)c(O)c4c(O)c(c5c(nc6cc(C)ccn65)c4c3C2=O)NC(=O)/C(C)=C\C=C\[C@H](C)[C@H](O)[C@@H](C)[C@@H](O)[C@@H](C)[C@H](OC(C)=O)[C@@H]1C
25,> 46,COc1cc(C(=O)N2CCOCC2)cc(OC)c1OC
26,> 46,NS(=O)(=O)Cc1noc2ccccc12

row,IC50 [µM],Structure (SMILES)
1,> 46,CCN(CC)CCNC(=O)c1ccc(N)cc1
2,> 46,CCCCCCCCCCCCCC(=O)OC(C)C
3,> 46,O[C@@H]([C@@H]1O\C(=C/[C@H](NC(N)=N)[C@H]1NC(C)=O)C(O)=O)[C@H](O)CO
4,> 46,NC(=O)c1cc[n+](CC2=C(C(=O)[O-])N3C(=O)[C@@H](NC(=O)Cc4cccs4)[C@H]3SC2)cc1
5,> 46,CCCCC(CC)CCC(CC(C)C)OS(=O)(=O)[O-].[Na+] (stereo not drawn)
6,> 46,CN(C)N=Nc1nc[nH]c1C(N)=O
7,> 46,CN[C@@H]1[C@H](O)[C@H](NC)[C@H]2O[C@@]3(O)C(=O)C[C@@H](C)O[C@H]3O[C@@H]2[C@H]1O.Cl.Cl
8,> 46,NCC1CCC(C(=O)O)CC1 (stereo not drawn)
9,> 46,CC[N+](CC)(CCNC(=O)C(=O)NCC[N+](CC)(CC)Cc1ccccc1Cl)Cc1ccccc1Cl.[Cl-].[Cl-]
10,> 46,CCCCCCCCCCCCCCCCN
11,> 46,NS(=O)(=O)c1ccc(C(=O)O)cc1
12,> 46,O.O.O.O.O.O.O=P([O-])([O-])OP(=O)([O-])OP(=O)([O-])[O-].[Na+].[Na+].[Na+].[Na+].[Na+]
13,> 46,CC(C)CCCC(C)CCCC(C)CCCCC(C)CCCC(C)CCCC(C)C (stereo not drawn)
14,> 46,C[N+](C)(C)CCCCCC[N+](C)(C)C
15,> 46,O=[C@](OC)[C@@H]3[C@@]2([H])C[C@@](N4C[C@@]([H])2CC[C@@H]3O)([H])C1=C(CC4)C(C=CC=C5)=C5N1
16,> 46,C(=Cc1ccccc1)CN1CCN(C(c2ccccc2)c2ccccc2)CC1
17,> 46,CC(=O)NCc1c(I)c(NC(C)=O)c(I)c(C(=O)O)c1I
18,> 46,NC(CNC([C@H](CC(C)C)N[C@]([C@@H]1CCCN1[C@]([C@H](CSSC[C@H](N)C(N[C@@H](CC3=CC=C(O)C=C3)C2=O)=O)NC([C@H](CC(N)=O)NC([C@@H](NC([C@](N2)([H])[C@@H](C)CC)=O)CCC(N)=O)=O)=O)=O)=O)=O)=O.O=C(C)O
19,> 46,Cl.O=C(O)CC/C=C\CC[C@@H]1[C@@H](N2CCCCC2)[C@@H](O)C[C@@H]1OCc1ccc(-c2ccccc2)cc1
20,> 46,CCCc1ccc(C(=O)O)cc1
21,> 46,CCO[C@@H]1O[C@H](C(COCc2ccccc2)OCc2ccccc2)[C@H](OCc2ccccc2)[C@H]1O (stereo partly drawn)
22,> 46,CCC(=O)NCC[C@@H]1CCc2ccc3c(c21)CCO3
23,> 46,CC1(C)NC(=O)N(c2ccc([N+](=O)[O-])c(C(F)(F)F)c2)C1=O
24,> 46,CC(CCc1ccc(O)cc1)NCCc1ccc(O)c(O)c1 (stereo not drawn)
25,> 46,C#C[C@]1(O)CC[C@H]2[C@@H]3CCC4=C(CCC(=O)C4)[C@H]3CC[C@@]21C
